# Source: ChEMBL document CHEMBL5252612, “A novel selective estrogen receptor degrader induces cell cycle arrest in breast cancer via ERα degradation and the autophagy-lysosome pathway” (Bioorg Med Chem, 2023)
# Calls of active or inactive are those of the source. The rule behind the calls is not given here.
# Key:
# [1] = Induction of cell cycle arrest in tamoxifen-resistant human LCC2 cells assessed as proportion of cells at S phase at 5 uM by flow cytometry (reference value: 28.4%); type: functional
# T47D [2] = assay: Anticancer activity against ER-alpha positive human T47D cells assessed as reduction in cell viability at 10 uM measured after 48 hrs in presence of autophagy inhibitor, 3-MA by CCK8 assay; type: functional, cell-based
# T47D [3] = assay: Induction of cell cycle arrest in human T47D cells assessed as proportion of cells at S phase at 10 uM incubated for 24 hrs by flow cytometry (reference value: 27.7%); type: functional
# MCF7 [4] = assay: Antitumor activity against human MCF7 cells xenografted in BALB/c nude mouse assessed as reduction in tumor volume at 2 to 4 mg/kg, ip administered every other day by caliper analysis; type: functional, organism-based; settings: dose 2-4 mg/kg
# [5] = Induction of cell cycle arrest in tamoxifen-resistant human LCC2 cells assessed as proportion of cells at S phase at 10 uM by flow cytometry (reference value: 28.4%); type: functional
# MCF7 [6] = assay: Anticancer activity against ER-alpha positive human MCF7 cells assessed as reduction in cell viability measured after 48 hrs by CCK8 assay; type: functional, cell-based
# [7] = biological target: T1, Estrogen receptor (Homo sapiens) (UniProt P03372); assay: Induction of ER-alpha degradation in human T47D cells assessed as decrease in MYC protein expression at 10 uM incubated for 24 hrs by western blot analysis; type: cell-based
# T1 sequence (whole entry): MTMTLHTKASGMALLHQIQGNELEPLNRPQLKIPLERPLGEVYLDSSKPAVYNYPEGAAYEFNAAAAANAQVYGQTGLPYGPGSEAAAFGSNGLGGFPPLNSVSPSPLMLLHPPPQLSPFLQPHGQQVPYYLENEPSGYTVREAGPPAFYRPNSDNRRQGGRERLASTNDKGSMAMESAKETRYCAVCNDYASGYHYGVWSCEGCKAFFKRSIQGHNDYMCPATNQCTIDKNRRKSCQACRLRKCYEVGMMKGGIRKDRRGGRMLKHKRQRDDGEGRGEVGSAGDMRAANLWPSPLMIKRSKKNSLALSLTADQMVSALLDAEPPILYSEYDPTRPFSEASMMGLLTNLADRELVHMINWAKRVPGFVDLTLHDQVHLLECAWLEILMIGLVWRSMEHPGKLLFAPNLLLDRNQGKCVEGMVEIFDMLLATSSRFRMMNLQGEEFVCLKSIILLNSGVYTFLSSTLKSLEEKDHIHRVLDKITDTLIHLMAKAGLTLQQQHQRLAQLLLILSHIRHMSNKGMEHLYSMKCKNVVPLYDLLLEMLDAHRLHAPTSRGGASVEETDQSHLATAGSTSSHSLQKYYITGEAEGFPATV
# MCF7 [8] = assay: Induction of apoptosis and necrosis in human MCF7 cells assessed as live cells at 10 uM incubated for 48 hrs by AnnexinV-FITC/PI staining based flow cytometry (reference value: 92.97%); type: functional
# T47D [9] = assay: Induction of cell cycle arrest in human T47D cells assessed as proportion of cells at G1 phase at 10 uM incubated for 24 hrs by flow cytometry (reference value: 52.6%); type: functional
# T47D [10] = assay: Induction of apoptosis in human T47D cells at 10 uM incubated for 48 hrs by TUNEL assay; type: functional, cell-based
# [11] = Induction of cell cycle arrest in tamoxifen-resistant human LCC2 cells assessed as proportion of cells at G2 phase at 1 uM by flow cytometry (reference value: 23.7%); type: functional
# MCF7 [12] = assay: Induction of apoptosis and necrosis in human MCF7 cells assessed as live cells at 20 uM incubated for 48 hrs by AnnexinV-FITC/PI staining based flow cytometry (reference value: 92.97%); type: functional
# T47D [13] = assay: Induction of cell cycle arrest in human T47D cells overexpressing MYC assessed as proportion of cells at G2 phase at 10 uM incubated for 24 hrs by flow cytometry (reference value: 48.5%); type: functional
# LCC2 = assay: Anticancer activity against ER-alpha positive human LCC2 cells assessed as reduction in cell viability at 20 uM measured after 48 hrs by CCK8 assay; type: functional, cell-based
# T47D [14] = assay: Induction of cell cycle arrest in human T47D cells assessed as proportion of cells at G1 phase at 10 uM incubated for 24 hrs in presence of autophagy inhibitor, 3-MA by flow cytometry (reference value: 58.3%); type: functional
# [15] = Induction of cell cycle arrest in tamoxifen-resistant human LCC2 cells assessed as proportion of cells at S phase at 1 uM by flow cytometry (reference value: 28.4%); type: functional
# [16] = biological target: T1, Estrogen receptor (Homo sapiens); assay: Induction of ER-alpha degradation in human T47D cells assessed as decrease in ER-alpha protein expression in presence of proteasome inhibitor, MG132 by western blot analysis; type: cell-based
# [17] = Anticancer activity against ER-alpha positive human LCC2 cells assessed as reduction in cell viability measured after 48 hrs by CCK8 assay; type: functional, cell-based; settings: Homo sapiens, LCC2, 48 h; read-out: IC50
# [18] = Toxicity in BALB/c nude mouse xenografted with human MCF7 cells assessed as kidney cell morphological changes at 2 to 4 mg/kg, ip administered every other day by Hematoxylin and eosin staining based analysis; type: organism-based; settings: in vivo, dose 2-4 mg/kg
# T47D [19] = assay: Induction of autophagy in human T47D cells assessed as upregulation of MAP1LC3B expression at 10 uM incubated for 12 hrs by RNA-seq analysis; type: functional, cell-based
# T47D [20] = assay: Induction of autophagy in human T47D cells assessed as decrease in p62 protein expression at 5 to 10 uM incubated for 24 hrs by western blot analysis; type: functional, cell-based; settings: dose 5-10 µM
# T47D [21] = assay: Induction of cell cycle arrest in human T47D cells overexpressing MYC assessed as proportion of cells at G1 phase at 10 uM incubated for 24 hrs by flow cytometry (reference value: 22.1%); type: functional
# T47D [22] = assay: Induction of cell cycle arrest in human T47D cells overexpressing MYC assessed as proportion of cells at S phase at 10 uM incubated for 24 hrs by flow cytometry (reference value: 24.2%); type: functional
# T47D [23] = assay: Induction of autophagy in human T47D cells overexpressing ESR1 assessed as increase in lysosome number by LysoTracker dye based confocal microscopy; type: functional, cell-based
# T47D [24] = assay: Induction of autophagy in human T47D cells assessed as upregulation of CTSD protein expression at 10 uM incubated for 24 hrs by western blot analysis; type: functional, cell-based
# T47D [25] = assay: Downregulation of ER-alpha mRNA expression in human T47D cells by RT-qPCR analysis; type: functional, cell-based
# [26] = Toxicity in BALB/c nude mouse xenografted with human MCF7 cells assessed as liver cell morphological changes at 2 to 4 mg/kg, ip administered every other day by Hematoxylin and eosin staining based analysis; type: organism-based; settings: in vivo, dose 2-4 mg/kg
# T47D [27] = assay: Anticancer activity against ER-alpha positive human T47D cells assessed as reduction in cell viability measured after 48 hrs by CCK8 assay; type: functional, cell-based
# T47D [28] = assay: Induction of cell cycle arrest in human T47D cells assessed as proportion of cells at G2 phase at 5 uM incubated for 24 hrs by flow cytometry (reference value: 24.4%); type: functional
# T47D [29] = assay: Induction of autophagy in human T47D cells assessed as upregulation of LAMP2 protein expression at 10 uM incubated for 24 hrs by western blot analysis; type: functional, cell-based
compound,measurement,setting,value
COc1ccc(N(CC(F)(F)F)S(=O)(=O)C2CC3OC2C(c2ccc(OCCN4CCCC4)cc2)=C3c2ccc(O)cc2)cc1 (configuration not stated),Activity,[1],13%
same,Activity,T47D [2],inactive
same,Activity,T47D [3],10.2%
same,Activity,MCF7 [4],Active
same,Activity,[5],13.4%
same,Activity,MCF7 [6],Dose-Dependent Effect
same,IC50,"MCF7 [6]; MCF7, 48 h",16.4 µM
same,Activity,[7],Active
same,Activity,MCF7 [8],83.71%
same,Activity,T47D [9],71.6%
same,Activity,T47D [10],Active
same,Activity,[11],16.6%
same,Activity,MCF7 [12],53.55%
same,Activity,T47D [13],52.5%
same,Activity,LCC2,Active
same,Activity,T47D [14],63.3%
same,Activity,[15],19.6%
same,Activity,[16],inactive
same,IC50,[17],10.5 µM
same,Activity,[18],Non-Toxic
same,Activity,T47D [19],Active
same,Activity,T47D [20],Active
same,Activity,T47D [21],20.6%
same,Activity,T47D [22],22.6%
same,Activity,T47D [23],Active
same,Activity,T47D [24],Active
same,inhibition,T47D [25],Active
same,Activity,[26],Non-Toxic
same,Activity,T47D [27],Dose-Dependent Effect
same,IC50,T47D [27],18.1 µM
same,Activity,T47D [28],16.2%
same,Activity,T47D [29],Active
